From patent US8877758B2, “Combinations of medicaments, containing PDE4-inhibitors and EP4-receptor-antagonists” (Boehringer Ingelheim International GmbH, priority 2010, dated 2014)
“Also recorded” adds a separate entry of the source.

Legend:
male Wistar rats [1] = assay: Experiment 1: four-day oral treatment of rats, roflumilast-mediated effects with or without diclofenac
Procedure: Six male Wistar rats in each group were treated for four days with the following substances (all substances are given p.o.=orally):
Group 1 (“control group”): Six male Wistar rats were given a daily dose of 0.5% Natrosol (placebo) at the times 0800, 1300 and 1700 hours.
Group 2 (“diclofenac group”): Six male Wistar rats were given a daily dose of 1 mg/kg of diclofenac (NSAID) at the times 0800 and 1700 hours and 0.5% Natrosol (placebo) at 1300 hours.
Group 3 (“roflumilast group”): Six male Wistar rats were given a daily dose of 0.5% Natrosol (placebo) at 0800 and 1700 hours and 10 mg/kg roflumilast (PDE4 inhibitor) at 1300 hours.
Group 4 (“roflumilast+diclofenac group”): Six male Wistar rats were given a daily dose of 1 mg/kg diclofenac (NSAID) at the times 0800 and 1700 hours and 10 mg/kg roflumilast (PDE4 inhibitor) at 1300 hours.
For pharmacokinetic analysis (determining the plasma levels of the substances) on day 4 one rat from each group was used; these rats were no longer available for other parameters under investigation.
During the experiment the body weights of the animals were determined and the differences in the body weights of the rats from the different groups towards the end of the experiment were shown as a percentage change from the time of the first administration (=day 1, 0800 hours (=time t0)). The average±standard deviation of the body weights at time t0 was 355±17 g.
At the end of the experiment (day 5, 95 hours after t0 (t0=the time of the first administration on day 1, 0800)) the proportion of neutrophils (in % of white blood cells, FIG. 2) were determined from the blood of 4 or 5 of the rats from the individual groups. In addition, the weights of the animals' spleens were measured and the mesenteries were dissected for histopathological investigation for vasculitis (multifocal perivascular mononuclear/polymorphonuclear infiltration).

male Wistar rats [2] = assay: Experiment 4: four-day oral treatment of rats, roflumilast-mediated effects with or without AH-6809; type: in vivo, rat
Procedure: group 2 (“AH-6809 group”): Six male Wistar rats were given a daily dosage of 10 mg/kg AH-6809 (preferential EP2 antagonist) at 1300 hours.

male Wistar rats [3] = assay: Experiment 3: four-day oral treatment of rats, roflumilast-mediated effects with or without MF-498; type: in vivo, rat
male Wistar rats [4] = assay: Experiment 2: four-day oral treatment of rats, roflumilast-mediated effects with or without SC-560 or Lumiracoxib; type: in vivo, rat
Excerpt: For pharmacokinetic analysis (determining plasma levels of the substances) one rat from each group was used on day 4; these rats were no longer available for the investigation of other parameters.

male Wistar rats [5] = assay: Experiment 3: four-day oral treatment of rats, roflumilast-mediated effects with or without MF-498; type: in vivo, rat; conditions: 20 mg/kg MF-498 p.o. at 1300 hours, four days, no roflumilast
Procedure: group 2 (“MF-498 group”): Six male Wistar rats were given a daily dosage of 20 mg/kg MF-498 (EP4 antagonist) in each case at 1300 hours.

[6] = 10 mg/kg Roflumilast p.o. at 1300 hours for four days, read-out day 5, 95 hours after t0
[7] = 1 mg/kg diclofenac p.o. at 0800 and 1700 hours + 10 mg/kg roflumilast at 1300 hours, four days
[8] = 2 mg/kg p.o. at 0800 and 1700 hours + 10 mg/kg Roflumilast at 1300 hours, four days
[9] = AH-6809 and 10 mg/kg Roflumilast p.o. at 1300 hours, four days
[10] = 20 mg/kg MF-498 and 10 mg/kg Roflumilast p.o. at 1300 hours, four days

**Q.** For O=C(Nc1c(Cl)cncc1Cl)c1ccc(OC(F)F)c(OCC2CC2)c1 [Roflumilast], which “death of animals in the roflumilast group” value (male Wistar rats [1]; 10 mg/kg roflumilast p.o. daily, six rats per group) is on record?
**A.** Its value is “died between day 4 and day 5”.

**Q.** And the “PDE4 inhibitor-mediated side effects observed in the Roflumilast group” value (male Wistar rats [2]; [6])?
**A.** The value was “loss of body weight; also recorded: loss of spleen weight; also recorded: neutrophilia; also recorded: mesenteric vasculitis”.

**Q.** What about the “PDE4 inhibitor-mediated side effects observed in the Roflumilast group” value (male Wistar rats [3]; [6]) of the same molecule?
**A.** Its value is “loss of body weight; also recorded: loss of spleen weight; also recorded: neutrophilia; also recorded: mesenteric vasculitis”.

**Q.** And the “PDE4 inhibitor-mediated side effects observed in the Roflumilast group” value (male Wistar rats [4]; [6])?
**A.** Its value is “loss of body weight; also recorded: loss of spleen weight; also recorded: neutrophilia; also recorded: mesenteric vasculitis”.

**Q.** For O=C(O)Cc1ccccc1Nc1c(Cl)cccc1Cl [diclofenac], which “effect of co-administration on roflumilast-mediated loss of body weight (FIG. 1)” value (male Wistar rats [1]; [7]) is on record?
**A.** Its value is “substantially reduced or prevented”.

**Q.** And the “effect of co-administration on roflumilast-mediated loss of spleen weight (FIG. 2)” value (male Wistar rats [1]; [7])?
**A.** Its value is “substantially reduced or prevented”.

**Q.** And the “effect of co-administration on roflumilast-mediated mesenteric vasculitis (monocyte/polymorphonuclear infiltration into the mesentery, FIG. 4)” value (male Wistar rats [1]; [7])?
**A.** Its value is “substantially reduced or prevented”.

**Q.** And the “effect of co-administration on roflumilast-mediated neutrophilia (FIG. 3)” value (male Wistar rats [1]; [7])?
**A.** The value was “substantially reduced or prevented”.

**Q.** What about the “parameters measured after administration on its own (body weight, spleen weight, neutrophils, mesenteric vasculitis)” value (from here on “parameters measured after administration”) (male Wistar rats [1]; 1 mg/kg diclofenac p.o. at 0800 and 1700 hours, four days, no roflumilast) of the same molecule?
**A.** The value was “very similar to the control groups”.

**Q.** Which “effect of co-administration on roflumilast-mediated loss of body weight (FIG. 5)” value (male Wistar rats [4]; [8]) does the source give for Cc1ccc(Nc2c(F)cccc2Cl)c(CC(=O)O)c1 [Lumiracoxib] here?
**A.** Its value is “substantially reduced or prevented”.

**Q.** What about the “effect of co-administration on roflumilast-mediated loss of spleen weight (FIG. 6)” value (male Wistar rats [4]; [8]) of the same molecule?
**A.** Its value is “substantially reduced or prevented”.

**Q.** What about the “effect of co-administration on roflumilast-mediated mesenteric vasculitis (monocyte/polymorphonuclear perivascular infiltration, FIG. 8)” value (male Wistar rats [4]; [8]) of the same molecule?
**A.** Its value is “substantially reduced or prevented”.

**Q.** And the “effect of co-administration on roflumilast-mediated neutrophilia (FIG. 7)” value (male Wistar rats [4]; [8])?
**A.** The value was “substantially reduced or prevented”.

**Q.** What about the “parameters measured after administration” value (male Wistar rats [4]; 2 mg/kg p.o. at 0800 and 1700 hours, four days, no roflumilast) of the same molecule?
**A.** Its value is “very similar to the control groups”.

**Q.** Which “parameters measured after administration” value (male Wistar rats [2]; 10 mg/kg AH-6809 p.o. at 1300 hours, four days, no roflumilast) does the source give for CC(C)Oc1ccc2c(=O)c3cc(C(=O)O)ccc3oc2c1 [AH6809, 6-isopropoxy-9-oxoxanthene-2-carboxylic acid] here?
**A.** Its value is “very similar to the control group”.

**Q.** What about the “influence of co-administration on roflumilast-mediated loss of body weight (FIG. 13)” value (male Wistar rats [2]; [9]) of the same molecule?
**A.** The value was “no indications that the EP2 preferential receptor antagonist AH-809 had any influence”.

**Q.** What about the “influence of co-administration on roflumilast-mediated loss of spleen weight (FIG. 14)” value (male Wistar rats [2]; [9]) of the same molecule?
**A.** Its value is “no indications that the EP2 preferential receptor antagonist AH-809 had any influence”.

**Q.** What about the “influence of co-administration on roflumilast-mediated mesenteric vasculitis (monocyte/polymorphonuclear perivascular infiltration, FIG. 16)” value (male Wistar rats [2]; [9]) of the same molecule?
**A.** The value was “no indications that the EP2 preferential receptor antagonist AH-809 had any influence”.

**Q.** And the “influence of co-administration on roflumilast-mediated neutrophilia (FIG. 15)” value (male Wistar rats [2]; [9])?
**A.** Its value is “no indications that the EP2 preferential receptor antagonist AH-809 had any influence”.

**Q.** For CCOc1c2c(c(OCC)c3ncccc13)CN(c1ccc(CS(=O)(=O)NC(=O)Cc3ccccc3OC)cc1C)C2=O [MF-498, N-{[4-(5,9-diethoxy-6-oxo-6,8-dihydro-7H-pyrrolo(3,4-g)quinolin-7-yl)-3-methylbenzyl)sulphonyl}-2-(2-methoxyphenyl)acetamide], which “parameters measured after administration” value (male Wistar rats [5]) is on record?
**A.** The value was “very similar to the control group”.

**Q.** What about the “effect of co-administration on roflumilast-mediated loss of body weight (FIG. 9)” value (male Wistar rats [3]; [10]) of the same molecule?
**A.** The value was “substantially reduced”.

**Q.** And the “effect of co-administration on roflumilast-mediated loss of spleen weight (FIG. 10)” value (male Wistar rats [3]; [10])?
**A.** The value was “substantially reduced”.

**Q.** What about the “effect of co-administration on roflumilast-mediated mesenteric vasculitis (monocyte/polymorphonuclear perivascular infiltration, FIG. 12)” value (male Wistar rats [3]; [10]) of the same molecule?
**A.** Its value is “substantially reduced”.

**Q.** What about the “effect of co-administration on roflumilast-mediated neutrophilia (FIG. 11)” value (male Wistar rats [3]; [10]) of the same molecule?
**A.** Its value is “substantially reduced”.

**Q.** What about the “differences in the weight of the spleen between the Roflumilast group and the Roflumilast+MF-498 group (statistics)” value (male Wistar rats [3]; 20 mg/kg MF-498 and 10 mg/kg Roflumilast p.o., one animal of the Roflumilast group had an unusually small loss of spleen weight) of the same molecule?
**A.** The value was “do not achieve statistical significance”.
